According to BindingDB's records for doi:10.1021/jm100470t (Ume&#163, 2010):

Assay: Inhibition of Escherichia coli UTI89 PapD chaperon assessed as inhibition of biofilm formation

| IC50 [µM] | Structure (SMILES) |
| --- | --- |
| 90 | Cc1sc2c(C3CC3)c(Cc3cccc4ccccc34)cc(=O)n2c1C(=O)O |
| 61 | O=C(O)c1c(-c2ccco2)sc2c(C3CC3)c(Cc3cccc4ccccc34)cc(=O)n12 |
| 11 | Cc1cccc(-c2sc3c(C4CC4)c(Cc4cccc5ccccc45)cc(=O)n3c2C(=O)O)c1 |
| 25 | O=C(O)c1c(-c2ccsc2)sc2c(C3CC3)c(Cc3cccc4ccccc34)cc(=O)n12 |
| 7 | O=C(O)c1c(Cc2ccccc2)sc2c(C3CC3)c(Cc3cccc4ccccc34)cc(=O)n12 |
| 159 | O=C(Nc1ccccc1)c1sc2c(C3CC3)c(Cc3cccc4ccccc34)cc(=O)n2c1C(=O)O |
| 13 | Cc1ccc(-c2sc3c(C4CC4)c(Cc4cccc5ccccc45)cc(=O)n3c2C(=O)O)cc1 |
| 39 | CS(=O)(=O)NC(=O)c1c(-c2ccccc2)sc2c(C3CC3)c(Cc3cccc4ccccc34)cc(=O)n12 |
| 78 | O=C(O)c1c(-c2ccoc2)sc2c(C3CC3)c(Cc3cccc4ccccc34)cc(=O)n12 |
| 11 | O=C(O)c1c(-c2ccccc2)sc2c(C3CC3)c(Cc3cccc4ccccc34)cc(=O)n12 |
| 304 | CC(C)(O)c1sc2c(C3CC3)c(Cc3cccc4ccccc34)cc(=O)n2c1C(=O)O |
